Paper PMC8322648, “Brevibacillin 2V Exerts Its Bactericidal Activity via Binding to Lipid II and Permeabilizing Cellular Membranes” (Frontiers in Microbiology, 2021)

Experiments:
[1] = test system: S. aureus ATCC15975 (MRSA); assay: Time-killing assay; format: cell-based, Staphylococcus aureus; conditions: for killing kinetics / capacity, in words: 10 × MIC (brevibacillins 20 μg/ml; nisin 40 μg/ml)
Method: This assay was performed according to a previously described procedure ([Ling et al., 2015]; [Zhao et al., 2020b]). An overnight culture of cells [S. aureus ATCC15975 (MRSA)] was diluted 50-fold in MHB and incubated at 37°C with aeration at 220 rpm. Bacteria were grown to an OD600 of 0.5, and then, the concentration of cells was adjusted to ≈ 5 × 10^6 cells per ml. Bacteria were then challenged with nisin (40 μg/ml), brevibacillin (20 μg/ml), brevibacillin V (20 μg/ml), brevibacillin I (20 μg/ml), or brevibacillin 2V (20 μg/ml) in culture tubes at 37°C and 220 rpm (peptides at 10 × MIC, a desirable concentration at the site of infection). Bacteria not treated with peptides were used as negative controls. At desired time points, 200 μl aliquots were taken, centrifuged at 8,000 g for 2 min, and resuspended in 200 μl of MHB. 10-fold serially diluted samples were plated on MHA plates. After incubated at 37°C overnight, colonies were counted and c.f.u. per ml was calculated. Each experiment was performed in triplicate.

[2] = test system: S. aureus ATCC15975 (MRSA) membrane; assay: DiSC3(5) membrane potential assay; format: cell-based, Staphylococcus aureus; conditions: 2 × MIC; for rank order of membrane disruption capacity: correlates with calculated hydrophobicity
Method: Staphylococcus aureus ATCC15975 (MRSA) was grown to an OD600 of 0.8. The culture was pelleted at 5,000 × g for 5 min and washed three times in 10 mm HEPES with 10 mm glucose (pH 7.2). The cell density was normalized to an OD600 of 0.2, loaded with 2 μm DiSC3(5) dye, and incubated for 20 min in the dark for probe fluorescence to stabilize. After incubation, KCl was added to the cell suspension at a final concentration of 100 mm. Subsequently, the cell suspension was added to a 96-well microplate and incubation for 5 min; after that, antibiotics were added at a final concentration of 2 × MIC. Fluorescence was monitored for 25 min, with the antibiotics added after ~20 s. The excitation and emission wavelengths on the fluorescence spectrometer were adjusted to 622 nm and 670 nm, respectively. Representative examples from three technical replicates are shown.

[3] = Carboxyfluorescein leakage assay, LUVs of pure DOPC; conditions: peptide 100 nM; pure DOPC LUVs 5 μM; 25 mM Tris-HCl, 150 mM NaCl, pH 7.5; ex 492/em 515 nm
Method: LUVs that contain DOPC or DOPC plus 0.1% Lipid II were prepared for a carboxyfluorescein (CF) leakage assay. The lipids were dried by a nitrogen stream and followed under vacuum for 2 h. After that, the lipids were hydrated by adding 25 mm Tris-HCl, 150 mm NaCl, and pH 7.5 containing 50 mm CF. The suspensions were frozen and thawed 10 times, followed by extrusion through 200nm membrane filters (Whatman Nuclepore, Track-Etch Membranes) 10 times. The excess dye was removed by loading vesicles on a spin column (Sephadex G50) for 2 min at 500 × g. Subsequently, the vesicles were diluted to 5 μm, and the brevibacillins-induced release of CF from the vesicles was monitored by measuring the increase in fluorescence intensity. The maximum fluorescence was reached by adding 10 μl of 20% Triton X-100. A Cary Eclipse Fluorescence Spectrophotometer (Agilent, United States) was used to determine the changes of fluorescence signals, and the excitation wavelength and emission wavelength were adjusted to 492 nm and 515 nm, respectively.

[4] = Pyrene-labeled Lipid II fluorescence quenching assay; format: binding; conditions: 50 μM DOPC LUVs with 0.5 mol % pyrene-labeled Lipid II, 20°C, ex 350 nm
Method: The effects of antibiotics on pyrene-labeled Lipid II were measured using 50 μm DOPC-based large unilamellar vesicles (LUVs) containing 0.5 mol % pyrene-labeled Lipid II ([Breukink et al., 2003]). Briefly, the LUVs were added to a quartz cuvette and titrated with nisin, brevibacillin, or brevibacillin 2V with stirring at 20°C. The fluorescence spectra were recorded between 360 and 600 nm (λex350 nm) using a Cary Eclipse Fluorescence Spectrophotometer (Agilent, United States).

S. aureus (MRSA) = assay: Membrane permeability assay, concentration series (fluorescence microscopy); format: cell-based, Staphylococcus aureus; conditions: 15 min; for concentration needed to permeabilize virtually all cellular membranes: comparison of brevibacillin and brevibacillin 2V
Method: Staphylococcus aureus ATCC15975 (MRSA) was grown to an OD600 of 0.8. The culture was pelleted at 5,000 × g for 5 min and washed three times in 10 mm HEPES with 10 mm glucose (pH 7.2). After normalization of the cell density to an OD600 of 0.2 in 10 mm HEPES with 10 mm glucose (pH 7.2), a 2-fold MIC concentration of brevibacillins (4 μg/ml) or nisin (8 μg/ml) was added. At the same time, SYTO® 9 and propidium iodide (LIVE/DEAD Baclight Bacterial Viability Kit, Invitrogen) were added to the above cell suspensions. After incubation at room temperature for 15 min, peptides were removed and washed three times with 10 mm HEPES with 10 mm glucose (pH 7.2). Then, the cell suspensions were loaded on 1.5% agarose pads and analyzed by DeltaVision Elite microscope (Applied Precision; [Zhao and Kuipers, 2021]).
GraphPad Prism 7.0 was used to fit the data of time-killing assay, DiSC3(5) assay, fluorescence quenching assay, ITC assay, and CF Leakage assay in Figures 3–7. The fluorescence images (ratio of membrane permeabilized cells) were quantified by the software Adobe Photoshop 2021. The Kd values of brevibacillins to Lipid II were calculated using the Nano Analyze Software (Waters LLC). The statistical significance of the data was assessed using Duncan’s multiple range test with the software SPSS Statistics 26; values of p < 0.05 were considered to be statistically significant.
Figure 7 Brevibacillins disrupt membrane permeability without the need for Lipid II binding. (A), Cartoon schematic of the assay used to assess membrane permeability disruption of brevibacillins. (B), CF releases (%) vs. time graph showing the effects of adding brevibacillins to DOPC-LUVs with 0.1% Lipid II; peptide concentrations were 100 nm; a, when peptides were added; and b, when 20% Triton X-100 added. (C), CF releases (%) vs. time graph showing the effects of adding brevibacillins to LUVs of pure DOPC; peptide concentrations were 100 nm; a, when peptides were added; and b, when 20% Triton X-100 was added. (D), fluorescence microscopic images of S. aureus (MRSA) after have been treated by a series concentrations of brevibacillins and nisin for 15 min. (E), the ratio of membrane permeabilized cells that was quantified by Adobe Photoshop 2021; the data are representative of three independent experiments.
To investigate the in vivo membrane disruption capacity of brevibacillin and brevibacillin 2V, a membrane permeability assay was performed with a series of concentrations of antibiotics. Nisin was used as a control.

[5] = ref Zhao et al., 2021; cited from earlier work

Q: With Brevibacillin as the substance, how does the “killing kinetics / capacity, in words” value ([1]; MHB, 37°C) read?
A: The value was “intermediate killing capacity”.

Q: And the “time to complete killing of all cells” value ([1]; 10 × MIC (nisin 40 μg/ml; brevibacillins 20 μg/ml), ≈ 5 × 10^6 cells per ml, MHB, 37°C, 220 rpm, triplicate)?
A: The value was no more than 2 h.

Q: And the “speed of membrane permeabilization” value [2]?
A: Its value is “appeared to act faster than brevibacillin 2V and the well-known pore-forming antibiotic nisin”.

Q: What about the “rank order of membrane disruption capacity” value [2] of the same substance?
A: The value was “brevibacillin I > brevibacillin > brevibacillin V > brevibacillin 2V”.

Q: What about the “membrane disruption (CF leakage), LUVs lacking Lipid II” value [3] of the same substance?
A: The value was “still caused rapid disruption of membrane”.

Q: And the “excimer fluorescence (about 490 nm)” value [4]?
A: Its value is “no excimer fluorescence could be detected”.

Q: And the pyrene monomer fluorescence [4]?
A: The pyrene monomer fluorescence was “decreased the monomer fluorescence”.

Q: And the “membrane permeabilization capacity, comparison” value (S. aureus (MRSA); 100 nM and 400 nM, ratio of membrane permeabilized cells, three independent experiments, p < 0.05)?
A: The value was “significantly (p < 0.05) higher membrane permeabilization capacity than brevibacillin 2V”.

Q: And the “concentration needed to permeabilize virtually all cellular membranes” value (S. aureus (MRSA))?
A: The value was “a similar concentration of brevibacillin and brevibacillin 2V is needed”.

Q: Which results are given for Brevibacillin 2V?
A: stability in human plasma [5]: good stability in human plasma; killing kinetics / capacity, in words ([1]; MHB, 37°C): slowest killing capacity among brevibacillins, with similar killing kinetics as nisin; bactericidal or bacteriostatic action ([1]; S. aureus (MRSA), 10 × MIC): bactericidal antimicrobial agent; rank order of membrane disruption capacity [2]: brevibacillin I > brevibacillin > brevibacillin V > brevibacillin 2V; membrane disruption (CF leakage), LUVs lacking Lipid II [3]: still caused rapid disruption of membrane; excimer fluorescence (about 490 nm) [4]: no excimer fluorescence could be detected; pyrene monomer fluorescence [4]: decreased the monomer fluorescence; membrane permeabilization at 100 nM (S. aureus (MRSA); 100 nM, versus untreated group): did not induce membrane permeabilization; concentration needed to permeabilize virtually all cellular membranes (S. aureus (MRSA)): a similar concentration of brevibacillin and brevibacillin 2V is needed
